The supplement of paper PMC11061612

Tests used:
[1] = test system: SK-LU-1 (Lung Adenocarcinoma); assay: Bliss excess, mean over the matrix (fraction); higher = more synergy
Summary of the method: (§1)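 After 24 hours at 37°C and 5% CO2 in 1536-well plates, cells in DMEM/F12 or RPMI plus 10% FBS received two-drug dose matrices for 72 hours. Viability came from CellTiter-Glo 2.0 luminescence and was scaled as inhibition, anchored at 0 by vehicle wells and at 1 by blank wells. Combination Emax is taken as the second-highest inhibition in the matrix, and Bliss excess as the observed combination effect less EA + EB − EA·EB, with EA and EB the single-agent effects.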

[2] = test system: DU-145 (Prostate Carcinoma); assay: combination Emax (second highest fraction inhibited in the dose matrix, 72 h); higher = more inhibition; extreme values may be limits of the assay
Summary of the method: as §1

[3] = test system: SK-LU-1 (Lung Adenocarcinoma); assay: as above
Summary of the method: as §1

[4] = test system: ALL-SIL (T-Lymphoblastic Leukemia); assay: Bliss excess, mean over the matrix (fraction); higher = more synergy
Summary of the method: as §1

[5] = test system: CADO-ES1 (Ewing's Sarcoma); assay: as above
Summary of the method: as §1

[6] = test system: EJM (Plasma Cell Myeloma); assay: as above
Summary of the method: as §1

[7] = test system: EW-1 (Ewing's Sarcoma); assay: as above
Summary of the method: as §1

[8] = test system: G-401 (Other Solid Carcinomas); assay: as above
Summary of the method: as §1

[9] = test system: HCC1937 (Breast Carcinoma); assay: as above
Summary of the method: as §1

[10] = test system: HCC2998 (Colorectal Carcinoma); assay: as above
Summary of the method: as §1

[11] = test system: KOPN-8 (B-Lymphoblastic Leukemia); assay: as above
Summary of the method: as §1

[12] = test system: NCI-H1092 (Small Cell Lung Carcinoma); assay: as above
Summary of the method: as §1

[13] = test system: NCI-H1838 (Lung Adenocarcinoma); assay: as above
Summary of the method: as §1

[14] = test system: NCI-H2122 (Lung Adenocarcinoma); assay: as above
Summary of the method: as §1

[15] = test system: NCI-H650 (Lung Adenocarcinoma); assay: as above
Summary of the method: as §1

[16] = test system: CADO-ES1 (Ewing's Sarcoma); assay: combination Emax (second highest fraction inhibited in the dose matrix, 72 h); higher = more inhibition; extreme values may be limits of the assay
Summary of the method: as §1

[17] = test system: G-401 (Other Solid Carcinomas); assay: as above
Summary of the method: as §1

[18] = test system: HCC1500 (Breast Carcinoma); assay: as above
Summary of the method: as §1

[19] = test system: HCC1937 (Breast Carcinoma); assay: as above
Summary of the method: as §1

[20] = test system: NCI-H650 (Lung Adenocarcinoma); assay: as above
Summary of the method: as §1
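For Bliss excess, mean over the matrix in this document: after 72 h of two-drug dosing.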

| Compound | Bliss excess [1] | combination Emax [2] | combination Emax [3] | Bliss excess [4] | Bliss excess [5] | Bliss excess [6] | Bliss excess [7] | Bliss excess [8] | Bliss excess [9] | Bliss excess [10] | Bliss excess [11] | Bliss excess [12] | Bliss excess [13] | Bliss excess [14] | Bliss excess [15] | combination Emax [16] | combination Emax [17] | combination Emax [18] | combination Emax [19] | combination Emax [20] |
| --- | --- | --- | --- | --- | --- | --- | --- | --- | --- | --- | --- | --- | --- | --- | --- | --- | --- | --- | --- | --- |
| CN(CCO)CC[C@H](CSc1ccccc1)Nc1ccc(S(=O)(=O)NC(=O)c2ccc(N3CCC([C@@H](O)c4ccccc4-c4ccc(Cl)cc4)CC3)cc2)cc1S(=O)(=O)C(F)(F)F [AZD4320] + Nc1ccn([C@@H]2O[C@H](CO)[C@@H](O)C2(F)F)c(=O)n1 [Gemcitabine] (first compound max 1 µM, 7x7, partner max 0.3 µM) | -0.036 | 0.485 | 0.248 | – | – | – | – | – | – | – | – | – | – | – | – | – | – | – | – | – |
| Cc1cc2ncnn2cc1Nc1ncc2c(n1)n(C1CCOCC1)c(=O)n2C [AZD7648] + C=CCn1c(=O)c2cnc(Nc3ccc(N4CCN(C)CC4)cc3)nc2n1-c1cccc(C(C)(C)O)n1 [AZD1775] (first compound max 10 µM, partner max 1 µM) | – | 0.289 | – | 0.0133 | 0.0512 | -0.012 | 0.0272 | -0.0029 | -0.0069 | 0.0368 | -0.0472 | -0.0873 | -0.0149 | -0.0122 | 0.0029 | 0.45 | 0.674 | 0.424 | 0.52 | 0.288 |
| CN(CCO)CC[C@H](CSc1ccccc1)Nc1ccc(S(=O)(=O)NC(=O)c2ccc(N3CCC([C@@H](O)c4ccccc4-c4ccc(Cl)cc4)CC3)cc2)cc1S(=O)(=O)C(F)(F)F [AZD4320] + Cc1cc2ncnn2cc1Nc1ncc2c(n1)n(C1CCOCC1)c(=O)n2C [AZD7648] (first compound max 1 µM, 7x7, partner max 10 µM) | 0.0207 | – | 0.421 | -0.0083 | -0.0361 | 0.0347 | 0.0033 | -0.0392 | -0.0352 | -0.0035 | -0.0243 | 0.005 | -0.0291 | -0.0074 | -0.021 | 0.608 | 0.424 | 0.998 | 0.29 | 0.134 |
| Cc1cc2ncnn2cc1Nc1ncc2c(n1)n(C1CCOCC1)c(=O)n2C [AZD7648] + CN(C)CCCOc1ccc(-c2ccc3ncc4c(c3c2)n(C2CCOCC2)c(=O)n4C)cn1 [AZD0156] (first compound max 10 µM, 7x7, partner max 1 µM) | – | 0.167 | – | 0.0467 | 0.0465 | 0.072 | 0.0734 | 0.0335 | -0.0129 | 0.0329 | 0.0351 | -0.0312 | 0.0203 | 0.0426 | 0.0061 | 0.38 | 0.329 | 0.299 | 0.221 | 0.186 |
| Cc1cc2ncnn2cc1Nc1ncc2c(n1)n(C1CCOCC1)c(=O)n2C [AZD7648] + COc1cc([C@@H]2c3cc4c(cc3[C@@H](O[C@@H]3O[C@@H]5CO[C@@H](C)O[C@H]5[C@H](O)[C@H]3O)[C@H]3COC(=O)[C@H]23)OCO4)cc(OC)c1O [Etoposide] (first compound max 10 µM, 7x7, partner max 10 µM) | 0.0201 | 0.441 | 0.47 | – | – | – | – | – | – | – | – | – | – | – | – | – | – | – | – | – |
| CN(CCO)CC[C@H](CSc1ccccc1)Nc1ccc(S(=O)(=O)NC(=O)c2ccc(N3CCC([C@@H](O)c4ccccc4-c4ccc(Cl)cc4)CC3)cc2)cc1S(=O)(=O)C(F)(F)F [AZD4320] + CCN(CCO)CCCOc1ccc2c(Nc3cc(CC(=O)Nc4cccc(F)c4)[nH]n3)ncnc2c1 [AZD2811] (first compound max 1 µM, 7x7, partner max 1 µM) | -0.0232 | – | 0.281 | -0.0124 | -0.0732 | 0.0454 | 0.146 | 0.0082 | -0.0513 | 0.103 | -0.0249 | 0.0193 | 0.0003 | 0.0001 | -0.0457 | 0.668 | 0.517 | 0.997 | 0.489 | 0.157 |
| N#Cc1cnc(Nc2cc(NC[C@H]3CNCCO3)c(C(F)(F)F)cn2)cn1 [SRA737] + Nc1ccn([C@@H]2O[C@H](CO)[C@@H](O)C2(F)F)c(=O)n1 [Gemcitabine] (first compound max 10 µM, 7x7, partner max 0.3 µM) | -0.101 | 0.544 | 0.389 | – | – | – | – | – | – | – | – | – | – | – | – | – | – | – | – | – |
| CN(CCO)CC[C@H](CSc1ccccc1)Nc1ccc(S(=O)(=O)NC(=O)c2ccc(N3CCC([C@@H](O)c4ccccc4-c4ccc(Cl)cc4)CC3)cc2)cc1S(=O)(=O)C(F)(F)F [AZD4320] + CC(=O)O[C@H]1C(=O)[C@@]2(C)[C@H]([C@H](OC(=O)c3ccccc3)[C@]3(O)C[C@H](OC(=O)[C@H](O)[C@@H](NC(=O)c4ccccc4)c4ccccc4)C(C)=C1C3(C)C)[C@]1(OC(C)=O)CO[C@@H]1C[C@@H]2O [Paclitaxel] (first compound max 1 µM, 7x7, partner max 3 µM) | 0.116 | 0.818 | 0.741 | – | – | – | – | – | – | – | – | – | – | – | – | – | – | – | – | – |
| CN(CCO)CC[C@H](CSc1ccccc1)Nc1ccc(S(=O)(=O)NC(=O)c2ccc(N3CCC([C@@H](O)c4ccccc4-c4ccc(Cl)cc4)CC3)cc2)cc1S(=O)(=O)C(F)(F)F [AZD4320] + Cn1cnc2c(F)c(Nc3ccc(Br)cc3Cl)c(C(=O)NOCCO)cc21 [Selumetinib] (first compound max 1 µM, 7x7, partner max 3 µM) | – | 0.255 | – | -0.0006 | -0.0085 | 0.072 | 0.0387 | 0.0907 | -0.0001 | 0.0449 | 0.0821 | -0.0193 | 0.0376 | 0.0399 | 0.119 | 0.886 | 0.543 | 0.998 | 0.601 | 0.656 |
| N#Cc1cnc(Nc2cc(NC[C@H]3CNCCO3)c(C(F)(F)F)cn2)cn1 [SRA737] + C=CCn1c(=O)c2cnc(Nc3ccc(N4CCN(C)CC4)cc3)nc2n1-c1cccc(C(C)(C)O)n1 [AZD1775] (first compound max 10 µM, partner max 1 µM) | 0.0096 | 0.263 | 0.442 | – | – | – | – | – | – | – | – | – | – | – | – | – | – | – | – | – |
| Cc1cc2ncnn2cc1Nc1ncc2c(n1)n(C1CCOCC1)c(=O)n2C [AZD7648] + C[C@@H]1COCCN1C2=NC(=NC(=C2)C3(CC3)[S@](=N)(=O)C)C4=C5C=CNC5=NC=C4 [AZD6738] (first compound max 10 µM, 7x7, partner max 10 µM) | – | 0.478 | – | 0.0462 | 0.0364 | 0.0308 | 0.024 | -0.0143 | -0.0345 | 0.0336 | -0.0187 | 0.0073 | -0.0062 | 0.0176 | 0.0048 | 0.824 | 0.379 | 0.383 | 0.527 | 0.138 |
| CN(CCO)CC[C@H](CSc1ccccc1)Nc1ccc(S(=O)(=O)NC(=O)c2ccc(N3CCC([C@@H](O)c4ccccc4-c4ccc(Cl)cc4)CC3)cc2)cc1S(=O)(=O)C(F)(F)F [AZD4320] + C[C@@H](Nc1cc(F)cc(F)c1)c1cc(C(=O)N(C)C)cc2c(=O)cc(N3CCOCC3)oc12 [AZD8186] (first compound max 1 µM, 7x7, partner max 3 µM) | – | 0.227 | – | 0.0208 | -0.0003 | 0.0837 | 0.0604 | -0.101 | -0.008 | -0.0212 | 0.0392 | 0.0389 | 0.0139 | 0 | 0.0081 | 0.919 | 0.661 | 0.992 | 0.63 | 0.474 |
| Cc1cc2ncnn2cc1Nc1ncc2c(n1)n(C1CCOCC1)c(=O)n2C [AZD7648] + CCN(CCO)CCCOc1ccc2c(Nc3cc(CC(=O)Nc4cccc(F)c4)[nH]n3)ncnc2c1 [AZD2811] (first compound max 10 µM, 7x7, partner max 1 µM) | – | 0.209 | – | -0.0416 | 0.0236 | 0.0417 | 0.053 | -0.0176 | 0.0064 | -0.0065 | 0.0713 | 0.0041 | -0.0491 | 0.0547 | -0.0147 | 0.377 | 0.51 | 0.445 | 0.234 | 0.14 |
| COc1cc2c(cc1OCCCCCOc1cc3c(cc1OC)C(=O)N1C=C(C)C[C@H]1C=N3)N=C[C@@H]1CC(C)=CN1C2=O [SG3199] + O=C(c1cc(Cc2n[nH]c(=O)c3ccccc23)ccc1F)N1CCN(C(=O)C2CC2)CC1 [Olaparib] (first compound max 0.001 µM, 7x7, partner max 10 µM) | – | 0.104 | – | -0.0316 | 0.0008 | -0.0198 | 0.0403 | -0.0211 | -0.0623 | -0.0099 | -0.0265 | -0.0165 | -0.0795 | 0.0073 | -0.0206 | 0.325 | 0.32 | 0.125 | 0.14 | 0.136 |
| N#Cc1cnc(Nc2cc(NC[C@H]3CNCCO3)c(C(F)(F)F)cn2)cn1 [SRA737] + CCc1c2c(nc3ccc(O)cc13)-c1cc3c(c(=O)n1C2)COC(=O)[C@]3(O)CC [SN-38] (first compound max 10 µM, 7x7, partner max 0.3 µM) | -0.0943 | 0.628 | 0.639 | – | – | – | – | – | – | – | – | – | – | – | – | – | – | – | – | – |
| N#Cc1cnc(Nc2cc(NC[C@H]3CNCCO3)c(C(F)(F)F)cn2)cn1 [SRA737] + O=c1[nH]cc(F)c(=O)[nH]1 [5-Fluorouracil] (first compound max 10 µM, 7x7, partner max 20 µM) | -0.0137 | 0.439 | 0.369 | – | – | – | – | – | – | – | – | – | – | – | – | – | – | – | – | – |
